Measurements reported in ChEMBL document CHEMBL1131838, “8-acenaphthen-1-yl-1-phenyl-1,3,8-triaza-spiro[4.5]decan-4-one derivatives as orphanin FQ receptor agonists” (Bioorg Med Chem Lett, 1999).
The source made the active and inactive calls. No cut-off for these calls is given here.

Columns and labels:
[1] = Compound was evaluated for the opioid receptor agonistic activity at dose 1-10 mg/kg by intraperitoneal administration; Inactive; type: functional, organism-based
[2] = target: 5-hydroxytryptamine receptor 1D (Homo sapiens, UniProt P28221); assay: Affinity against 5-hydroxytryptamine 1D receptor alpha
[3] = target: 5-hydroxytryptamine receptor 2A (Homo sapiens, UniProt P28223); assay: Affinity against 5-hydroxytryptamine 2A receptor
[4] = target: 5-hydroxytryptamine receptor 7 (Homo sapiens, UniProt P34969); assay: Affinity against 5-hydroxytryptamine 7 receptor
[5] = target: 5-hydroxytryptamine receptor 6 (Homo sapiens, UniProt P50406); assay: Affinity against 5-hydroxytryptamine 6 receptor
[6] = target: T1, 5-hydroxytryptamine receptor 2C (Homo sapiens, UniProt P28335); assay: Affinity against 5-hydroxytryptamine 2C receptor
T1 sequence (P28335 whole entry): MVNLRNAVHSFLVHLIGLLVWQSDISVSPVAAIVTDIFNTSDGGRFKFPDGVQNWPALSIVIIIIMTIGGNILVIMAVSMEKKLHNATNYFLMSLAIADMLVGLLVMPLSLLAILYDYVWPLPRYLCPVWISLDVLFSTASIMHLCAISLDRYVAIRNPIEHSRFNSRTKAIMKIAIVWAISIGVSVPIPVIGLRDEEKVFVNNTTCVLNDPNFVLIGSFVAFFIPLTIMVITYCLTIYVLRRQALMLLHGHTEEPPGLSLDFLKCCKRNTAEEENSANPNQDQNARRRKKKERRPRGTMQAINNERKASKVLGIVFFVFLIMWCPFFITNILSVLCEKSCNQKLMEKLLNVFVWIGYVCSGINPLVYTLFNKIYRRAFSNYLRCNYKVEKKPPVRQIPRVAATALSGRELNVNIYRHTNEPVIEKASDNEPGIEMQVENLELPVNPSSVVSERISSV

[7] = target: GABA-A receptor; anion channel; assay: Binding affinity for GABA-A central benzodiazepine receptor; type: protein-complex assay
[8] = target: T2, Corticotropin-releasing factor receptor 1 (Rattus norvegicus, UniProt P35353); assay: Affinity against Corticotropin releasing factor receptor 1
T2 sequence (P35353 whole entry): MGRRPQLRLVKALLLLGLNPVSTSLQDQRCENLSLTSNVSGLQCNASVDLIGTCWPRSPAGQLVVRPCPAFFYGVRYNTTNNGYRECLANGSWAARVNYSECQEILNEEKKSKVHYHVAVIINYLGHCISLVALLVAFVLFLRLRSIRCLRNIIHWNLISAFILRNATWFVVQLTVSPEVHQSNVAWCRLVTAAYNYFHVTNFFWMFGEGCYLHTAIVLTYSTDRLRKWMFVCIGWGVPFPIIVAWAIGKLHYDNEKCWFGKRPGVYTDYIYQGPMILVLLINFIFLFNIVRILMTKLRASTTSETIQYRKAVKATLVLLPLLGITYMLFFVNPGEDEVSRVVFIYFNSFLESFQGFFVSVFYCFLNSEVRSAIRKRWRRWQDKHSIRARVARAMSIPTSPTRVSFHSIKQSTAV

[9] = target: T3, D(4) dopamine receptor (Homo sapiens, UniProt P21917); assay: Affinity against Dopamine receptor D4.4
T3 sequence (P21917 whole entry): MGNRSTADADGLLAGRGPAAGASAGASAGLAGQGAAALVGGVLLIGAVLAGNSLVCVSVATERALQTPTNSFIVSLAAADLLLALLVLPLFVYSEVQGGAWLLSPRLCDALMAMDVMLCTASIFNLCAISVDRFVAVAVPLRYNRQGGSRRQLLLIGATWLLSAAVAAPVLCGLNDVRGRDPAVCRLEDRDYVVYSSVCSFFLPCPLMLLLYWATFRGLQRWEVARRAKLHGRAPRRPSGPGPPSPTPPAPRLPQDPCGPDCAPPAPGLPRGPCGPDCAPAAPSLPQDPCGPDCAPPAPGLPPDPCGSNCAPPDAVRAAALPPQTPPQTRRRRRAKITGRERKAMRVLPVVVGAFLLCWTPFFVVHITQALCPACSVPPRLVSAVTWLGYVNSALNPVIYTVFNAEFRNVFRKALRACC

[10] = target: D(3) dopamine receptor (Homo sapiens, UniProt P35462); assay: Affinity against Dopamine receptor D3
[11] = system: Rattus norvegicus; assay: Forced motor performance in rats was determined and grip strength was reported at 3.2 mg/kg by ip administration; type: functional; conditions: route intraperitoneal
[12] = system: Rattus norvegicus; assay: Forced motor performance in rats was determined and grip strength was reported at 0.32 mg/kg by ip administration; type: functional; conditions: route intraperitoneal
[13] = system: Rattus norvegicus; assay: Forced motor performance in rats was determined and grip strength was reported at 1 mg/kg by ip administration; type: functional; conditions: route intraperitoneal
[14] = system: Rattus norvegicus; assay: Spontaneous locomotion in rats was determined and distance moved was reported at dose 1 mg/kg by ip administration; type: functional; conditions: route intraperitoneal
[15] = system: Rattus norvegicus; assay: Spontaneous locomotion in rats was determined and distance moved was reported at dose 3.2 mg/kg by ip administration; type: functional; conditions: route intraperitoneal
[16] = system: Rattus norvegicus; assay: Forced motor performance in rats was determined and traction test score was reported at 0.32 mg/kg by ip administration; type: functional; conditions: route intraperitoneal
[17] = system: Rattus norvegicus; assay: Forced motor performance in rats was determined and traction test score was reported at 1 mg/kg by ip administration; type: functional; conditions: route intraperitoneal
[18] = system: Rattus norvegicus; assay: Forced motor performance in rats was determined and traction test score was reported at 3.2 mg/kg by ip administration; type: functional; conditions: route intraperitoneal
[19] = Affinity against Corticotropin releasing factor receptor 2 alpha
[20] = target: D(2) dopamine receptor (Homo sapiens, UniProt P14416); assay: Affinity against Dopamine receptor D2
[21] = target: D(1A) dopamine receptor (Mus musculus, UniProt Q61616); assay: Affinity against Dopamine receptor D1
[22] = system: Rattus norvegicus; assay: Spontaneous locomotion in rats was determined and distance moved was reported at dose 0.32 mg/kg by ip administration; type: functional; conditions: route intraperitoneal

Sequence of D(1A) dopamine receptor (Q61616 whole entry): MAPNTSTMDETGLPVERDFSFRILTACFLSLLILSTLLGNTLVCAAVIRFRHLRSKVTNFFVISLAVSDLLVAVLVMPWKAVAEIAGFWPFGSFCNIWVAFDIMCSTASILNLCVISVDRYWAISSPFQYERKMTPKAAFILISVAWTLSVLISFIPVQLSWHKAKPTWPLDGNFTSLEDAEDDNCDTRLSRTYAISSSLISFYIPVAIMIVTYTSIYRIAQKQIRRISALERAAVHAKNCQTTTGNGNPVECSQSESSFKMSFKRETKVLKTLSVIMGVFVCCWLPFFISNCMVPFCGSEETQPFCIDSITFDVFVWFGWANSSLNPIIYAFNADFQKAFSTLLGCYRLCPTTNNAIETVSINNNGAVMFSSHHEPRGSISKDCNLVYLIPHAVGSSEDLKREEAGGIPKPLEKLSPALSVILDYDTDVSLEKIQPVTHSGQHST
Sequence of D(2) dopamine receptor (P14416 whole entry): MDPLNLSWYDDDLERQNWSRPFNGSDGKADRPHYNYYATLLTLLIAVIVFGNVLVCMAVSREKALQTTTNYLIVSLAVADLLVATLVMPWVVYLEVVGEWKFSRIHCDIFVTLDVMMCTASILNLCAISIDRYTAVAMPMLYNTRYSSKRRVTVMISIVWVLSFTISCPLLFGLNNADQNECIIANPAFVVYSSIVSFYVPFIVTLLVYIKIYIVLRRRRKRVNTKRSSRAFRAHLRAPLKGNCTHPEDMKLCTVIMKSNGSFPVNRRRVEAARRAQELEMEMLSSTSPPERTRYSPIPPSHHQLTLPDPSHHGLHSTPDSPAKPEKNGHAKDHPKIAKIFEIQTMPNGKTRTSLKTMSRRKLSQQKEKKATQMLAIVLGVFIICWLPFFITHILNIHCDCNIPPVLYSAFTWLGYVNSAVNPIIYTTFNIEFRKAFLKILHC
Sequence of 5-hydroxytryptamine receptor 2A (P28223 whole entry): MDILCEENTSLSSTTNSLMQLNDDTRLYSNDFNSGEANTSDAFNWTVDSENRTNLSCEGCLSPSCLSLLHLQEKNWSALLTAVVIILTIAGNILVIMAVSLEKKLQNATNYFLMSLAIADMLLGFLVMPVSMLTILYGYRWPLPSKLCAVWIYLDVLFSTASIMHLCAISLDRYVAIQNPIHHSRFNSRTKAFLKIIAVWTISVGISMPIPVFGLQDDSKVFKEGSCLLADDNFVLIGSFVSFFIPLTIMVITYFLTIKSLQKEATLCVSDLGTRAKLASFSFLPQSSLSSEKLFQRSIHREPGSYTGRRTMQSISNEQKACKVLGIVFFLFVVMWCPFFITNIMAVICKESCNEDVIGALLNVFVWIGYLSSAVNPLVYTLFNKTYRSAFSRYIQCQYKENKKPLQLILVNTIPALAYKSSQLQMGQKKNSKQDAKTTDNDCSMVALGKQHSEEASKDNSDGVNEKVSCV
Sequence of D(3) dopamine receptor (P35462 whole entry): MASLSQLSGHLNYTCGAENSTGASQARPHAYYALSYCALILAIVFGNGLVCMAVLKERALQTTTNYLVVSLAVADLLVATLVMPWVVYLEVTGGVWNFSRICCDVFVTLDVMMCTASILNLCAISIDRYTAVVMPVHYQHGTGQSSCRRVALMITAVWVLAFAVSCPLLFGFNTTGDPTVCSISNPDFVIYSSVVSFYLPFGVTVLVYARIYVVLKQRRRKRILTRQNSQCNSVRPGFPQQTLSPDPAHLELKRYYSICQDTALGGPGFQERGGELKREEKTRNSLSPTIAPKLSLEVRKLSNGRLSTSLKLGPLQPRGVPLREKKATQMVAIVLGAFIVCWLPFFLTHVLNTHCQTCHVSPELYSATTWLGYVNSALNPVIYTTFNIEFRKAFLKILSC
Sequence of 5-hydroxytryptamine receptor 6 (P50406 whole entry): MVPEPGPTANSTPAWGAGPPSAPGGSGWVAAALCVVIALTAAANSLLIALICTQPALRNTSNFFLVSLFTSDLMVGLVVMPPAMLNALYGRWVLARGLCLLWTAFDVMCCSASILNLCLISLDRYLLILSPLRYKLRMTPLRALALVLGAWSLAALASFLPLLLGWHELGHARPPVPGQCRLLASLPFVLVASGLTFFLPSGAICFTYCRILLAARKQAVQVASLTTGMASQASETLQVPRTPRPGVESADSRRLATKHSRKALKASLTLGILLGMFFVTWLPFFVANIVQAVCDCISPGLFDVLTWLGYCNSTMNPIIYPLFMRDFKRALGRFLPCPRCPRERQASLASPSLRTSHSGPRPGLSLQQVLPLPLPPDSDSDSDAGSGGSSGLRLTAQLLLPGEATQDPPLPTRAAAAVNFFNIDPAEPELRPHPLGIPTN
Sequence of 5-hydroxytryptamine receptor 1D (P28221 whole entry): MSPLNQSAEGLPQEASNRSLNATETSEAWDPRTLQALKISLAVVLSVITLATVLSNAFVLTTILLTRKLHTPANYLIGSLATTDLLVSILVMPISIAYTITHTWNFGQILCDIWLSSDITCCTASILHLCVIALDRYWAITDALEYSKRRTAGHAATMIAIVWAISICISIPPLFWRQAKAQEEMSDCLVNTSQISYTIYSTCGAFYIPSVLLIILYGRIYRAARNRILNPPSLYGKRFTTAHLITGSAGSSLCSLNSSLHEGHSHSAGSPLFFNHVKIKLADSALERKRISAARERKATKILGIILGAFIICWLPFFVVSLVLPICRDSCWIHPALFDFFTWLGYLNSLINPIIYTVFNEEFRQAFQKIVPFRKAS
Sequence of 5-hydroxytryptamine receptor 7 (P34969 whole entry): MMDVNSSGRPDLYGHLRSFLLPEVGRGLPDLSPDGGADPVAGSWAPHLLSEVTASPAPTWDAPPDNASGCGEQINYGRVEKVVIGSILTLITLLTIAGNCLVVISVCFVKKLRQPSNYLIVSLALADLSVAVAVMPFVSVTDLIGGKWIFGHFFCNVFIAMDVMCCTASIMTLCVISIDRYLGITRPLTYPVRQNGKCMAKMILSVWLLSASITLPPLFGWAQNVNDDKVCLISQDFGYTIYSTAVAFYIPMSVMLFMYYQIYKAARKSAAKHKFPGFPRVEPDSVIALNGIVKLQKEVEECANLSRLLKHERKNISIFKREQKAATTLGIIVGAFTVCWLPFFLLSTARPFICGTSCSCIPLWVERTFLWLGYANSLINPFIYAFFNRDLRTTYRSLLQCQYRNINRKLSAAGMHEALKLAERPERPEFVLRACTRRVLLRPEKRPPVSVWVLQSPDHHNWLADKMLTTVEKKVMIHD

## CN1CC[C@]23c4c5ccc(O)c4O[C@H]2[C@@H](O)C=C[C@H]3[C@H]1C5
[1]
  Activity: inactive

## O=C1NCN(c2ccccc2)C12CCN([C@@H]1Cc3cccc4cccc1c34)CC2
[2]
  Log Ki: < -6.5
[3]
  Log Ki: < -6.5
[4]
  Log Ki: < -6.5
[5]
  Log Ki: < -6.5
[6]
  Log Ki: < -6.5
[7]
  Log Ki: < -6.5
[8]
  Log Ki: < -6.5
[9]
  Log Ki: < -6.5
[10]
  Log Ki: < -6.5
[11]
  Grip strength: 479 g
[12]
  Grip strength: 516.25 g
[13]
  Grip strength: 521.63 g
[14]
  Locomotion: 1465.79 cm
[15]
  Locomotion: 1141.08 cm
[16]
  Traction test: 4 score
[17]
  Traction test: 4 score
[18]
  Traction test: 3.75 score
[19]
  Log Ki: < -6.5
[20]
  Log Ki: < -6.5
[21]
  Log Ki: < -6.5
[22]
  Locomotion: 1412.39 cm
